Assay results from patent US11691949B2, “Quinoline sulfonamide compounds and their use as antibacterial agents” (OTAGO INNOVATION LIMITED, priority 2017, dated 2023).
In brackets after ≈: the same amount, converted by molar mass. Counter-ions that a name gives are not always drawn. Like-named read-outs stand apart in the source and are kept apart here.

Tests used:
Type in all cases: cell-based
[1] = test system: S. aureus ATCC 6538; experiment: MBC by Miles-Misra drop-plate method, S. aureus; conditions: Staphylococcus aureus
Protocol: (§1) Antibacterial susceptibility testing was performed in triplicate (biological) by measuring minimum inhibitory concentrations (MICs) by broth microdilution in 96-well flat bottom microtiter plates (ThermoFisher Scientific, New Zealand). S. uberis ATCC 19436, S. aureus ATCC 6538, or E. coli ATCC 10596 cells grown overnight were diluted to an OD600 of approximately 0.025, so that the final concentration of cells in the MIC assay was approximately 5×10^5 cfu/mL in media as follows: S. uberis; Todd Hewitt Broth (THB), S. aureus; Tryptic Soy Broth (TSB) and Cation Adjusted Muller Hinton Broth (CAMHB), and E. coli; Lysogeny Borth (LB) and CAMHB, before being dispensed into microtiter wells. As required additional sterile Zinc Sulphate (Heptahydrate) was supplemented into the media, so the final concentration was 50 μM. Test compounds were added to starting wells and two-fold serial dilutions were undertaken to generate a range of inhibitor concentrations at a final volume of 200 μl. Media and test compound-free (untreated) controls were included in each microtiter plate in triplicate. After 24 h incubation at 37° C. and 200 rpm, the OD600 of wells were read using a Varioskan Flash plate reader (ThermoFisher Scientific, New Zealand). The MIC was reported as the lowest concentration of the test compound for which no growth occurred, as determined by OD600 readings. The minimum bactericidal concentration (MBC) was determined using the Miles-Misra drop-plate method to measure the viability of cells in response to test compound challenge.

[2] = test system: S. uberis ATCC 19436; experiment: MBC by Miles-Misra drop-plate method, S. uberis; conditions: Streptococcus uberis
Protocol: as §1

[3] = test system: S. aureus ATCC 6538; experiment: MIC by broth microdilution, S. aureus; conditions: Staphylococcus aureus
Outline: (§2)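 Overnight cultures diluted to ~5×10^5 cfu/mL final; S. aureus in TSB and CAMHB, E. coli in LB and CAMHB, zinc sulphate to 50 μM final as required; two-fold serial dilutions. MIC = lowest concentration with no growth by OD600 after 24 h, 37° C, 200 rpm. MBC by Miles-Misra drop-plate viability count.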

[4] = test system: E. coli ATCC 10536; experiment: MBC by Miles-Misra drop-plate method, E. coli; conditions: Escherichia coli
Protocol: as §1

[5] = test system: S. uberis ATCC 19436; experiment: MIC by broth microdilution, S. uberis; conditions: Streptococcus uberis
Outline: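 This broth microdilution assay used S. uberis ATCC 19436 in Todd Hewitt Broth, with zinc sulphate heptahydrate added where required to a final 50 μM. Inhibitor concentration ranges came from two-fold serial dilutions in 96-well flat bottom plates at 200 μl. Approximately 5×10^5 cfu/mL cells were incubated for 24 h at 37° C. and 200 rpm. Wells were then read at OD600 on a Varioskan Flash reader.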

[6] = test system: E. coli ATCC 10596; experiment: MIC by broth microdilution, E. coli; conditions: Escherichia coli
Outline: as §2

[7] = ATCC6538, No Zinc, read-out: S. aureus ATCC 6538 MBC
[8] = ATCC6538, Zinc (50 μM), read-out: S. aureus ATCC 6538 MBC
[9] = ATCC19436, No Zinc, read-out: S. uberis ATCC 19436 MBC
[10] = ATCC19436, Zinc (50 μM), read-out: S. uberis ATCC 19436 MBC
[11] = ATCC6538, No Zinc, read-out: S. aureus ATCC 6538 MIC
[12] = ATCC6538, Zinc (50 μM), read-out: S. aureus ATCC 6538 MIC
[13] = ATCC10536, No Zinc, read-out: E. coli ATCC 10536 MBC
[14] = ATCC10536, Zinc (50 μM), read-out: E. coli ATCC 10536 MBC
[15] = ATCC19436, No Zinc, read-out: S. uberis ATCC 19436 MIC
[16] = ATCC19436, Zinc (50 μM), read-out: S. uberis ATCC 19436 MIC
[17] = ATCC 10536 / ATCC 10596, No Zinc, read-out: E. coli ATCC 10536 MIC
[18] = ATCC 10536 / ATCC 10596, Zinc (50 μM), read-out: E. coli ATCC 10536 MIC
[19] = ATCC6538, read-out: S. aureus ATCC 6538 MBC, No Zinc
[20] = ATCC6538, read-out: S. aureus ATCC 6538 MBC, Zinc (50 μM)
[21] = ATCC19436, read-out: S. uberis ATCC 19436 MBC, No Zinc
[22] = ATCC19436, read-out: S. uberis ATCC 19436 MBC, Zinc (50 μM)
[23] = ATCC6538, read-out: S. aureus ATCC 6538 MIC, No Zinc
[24] = ATCC6538, read-out: S. aureus ATCC 6538 MIC, Zinc (50 μM)
[25] = ATCC10536, read-out: E. coli ATCC 10536 MBC, No Zinc
[26] = ATCC10536, read-out: E. coli ATCC 10536 MBC, Zinc (50 μM)
[27] = ATCC19436, read-out: S. uberis ATCC 19436 MIC, No Zinc
[28] = ATCC19436, read-out: S. uberis ATCC 19436 MIC, Zinc (50 μM)
[29] = ATCC 10536 / ATCC 10596, read-out: E. coli ATCC 10536 MIC, No Zinc
[30] = ATCC 10536 / ATCC 10596, read-out: E. coli ATCC 10536 MIC, Zinc (50 μM)

SMILES | MBC [1, 7] [µg/mL] | MBC [1, 8] [µg/mL] | MBC [2, 9] [µg/mL] | MBC [2, 10] [µg/mL] | MIC [3, 11] [µg/mL] | MIC [3, 12] [µg/mL] | MBC [4, 13] [µg/mL] | MBC [4, 14] [µg/mL] | MBC [1, 19] [µg/mL] | MBC [1, 20] [µg/mL] | MBC [2, 21] [µg/mL] | MBC [2, 22] [µg/mL] | MIC [3, 23] [µg/mL] | MIC [3, 24] [µg/mL] | MBC [4, 25] [µg/mL] | MBC [4, 26] [µg/mL] | MIC [5, 27] [µg/mL] | MIC [5, 28] [µg/mL] | MIC [6, 29] [µg/mL] | MIC [6, 30] [µg/mL] | also measured
O=S(=O)(Nc1cccc2ccc(CNc3ccccc3O)nc12)c1ccc(C(F)(F)F)cc1 [ZDR171, N-(2-(((2-Hydroxyphenyl)amino)methyl)quinolin-8-yl)-4-(trifluoromethyl)benzenesulfonamide] | 16 (≈ 33.8 µM) | 32 (≈ 67.6 µM) | 8 (≈ 16.9 µM) | 0.5 (≈ 1.06 µM) | 4 (≈ 8.45 µM) | 4 (≈ 8.45 µM) | > 256 | > 256 |  |  |  |  |  |  |  |  |  |  |  |  | MIC [5, 15]: 8 µg/mL (≈ 16.9 µM); MIC [5, 16]: 0.5 µg/mL (≈ 1.06 µM); MIC [6, 17]: > 256 µg/mL; MIC [6, 18]: > 256 µg/mL
N=C(N)NCc1ccc2cccc(NS(=O)(=O)c3ccc(C(F)(F)F)cc3)c2n1 [ZDR187, N-(2-(Guanidinomethyl)quinolin-8-yl)-4-(trifluoromethyl)benzenesulfonamide trifluoroacetate] |  |  |  |  |  |  |  |  | 32 | 32 | 16 | 8 | 8 | 8 | 64 | 16 | 16 | 0.5 | 32 | 16 | 
CN(C)CCCNC(=O)c1ccc2cccc(NS(=O)(=O)c3ccc(C(F)(F)F)cc3)c2n1 [ZDR224, N-(3-(Dimethylamino)propyl)-8-((4-(trifluoromethyl)phenyl)sulfonamido)quinoline-2-carboxamide trifluoroacetate] |  |  |  |  |  |  |  |  | 128 | 32 | 64 | 8 | 128 | 32 | > 256 | 256 | 64 | 16 | 256 | 256 | 
CN(C)CCCNC(=O)CNCc1ccc2cccc(NS(=O)(=O)c3ccc(C(F)(F)F)cc3)c2n1 [ZDR261, N-(3-(Dimethylamino)propyl)-2-(((8-((4-(trifluoromethyl)phenyl)sulfonamido)quinolin-2-yl)methyl)amino)acetamide di-trifluoroacetate] |  |  |  |  |  |  |  |  | 128 (≈ 244 µM) | 64 (≈ 122 µM) | 16 (≈ 30.6 µM) | 16 (≈ 30.6 µM) | 32 (≈ 61.1 µM) | 32 (≈ 61.1 µM) | > 256 | > 256 | 32 (≈ 61.1 µM) | 16 (≈ 30.6 µM) | 64 (≈ 122 µM) | 64 (≈ 122 µM) | 
O=C(CNCc1ccc2cccc(NS(=O)(=O)c3ccc(C(F)(F)F)cc3)c2n1)NCCN1CCCCC1 [ZDR269, N-(2-(Piperidin-1-yl)ethyl)-2-(((8-((4-(trifluoromethyl)phenyl)sulfonamido)quinolin-2-yl)methyl)amino)acetamide di-trifluoroacetate] |  |  |  |  |  |  |  |  | 64 (≈ 116 µM) | 128 (≈ 233 µM) | 4 (≈ 7.28 µM) | 16 (≈ 29.1 µM) | 32 (≈ 58.2 µM) | 64 (≈ 116 µM) | 64 (≈ 116 µM) | 64 (≈ 116 µM) | 4 (≈ 7.28 µM) | 8 (≈ 14.6 µM) | 64 (≈ 116 µM) | 64 (≈ 116 µM) | 
CN(C)Cc1ccc2cccc(NS(=O)(=O)c3ccc(Cl)cc3Cl)c2n1 [ZDR335, 2,4-Dichloro-N-(2-((dimethylamino)methyl)quinolin-8-yl)benzenesulfonamide] | > 256 | > 256 | 64 (≈ 156 µM) | 2 (≈ 4.87 µM) | 32 (≈ 78 µM) | 8 (≈ 19.5 µM) | > 256 | > 256 |  |  |  |  |  |  |  |  |  |  |  |  | MIC [5, 15]: 64 µg/mL (≈ 156 µM); MIC [5, 16]: 0.0312 µg/mL (≈ 0.076 µM); MIC [6, 17]: > 256 µg/mL; MIC [6, 18]: > 256 µg/mL
